Reference: patent publication US20080312287A1, “Compound and Methods For the Treatment of Cancer and Malaria” (University of Washington, priority 2005, published 2008)
Where two headings read alike, the source gives them in different places.

Columns and labels:
[1] = molecular target: T1, PfPFT (Plasmodium falciparum, UniProt Q8I503+Q8IHP6); assay: PfPFT inhibition, scintillation proximity assay with partially purified PfPFT; type: biochemical; details: for IC50: concentration decreasing transferase activity twofold; for inhibition at 0.005 µM: read-out: % Inhibition of PfPFT at 5 nM, inhibitor at 5 nM; for inhibition at 0.05 µM: read-out: % Inhibition of PfPFT at 50 nM, inhibitor at 50 nM
T1 sequence (Q8I503 1-521): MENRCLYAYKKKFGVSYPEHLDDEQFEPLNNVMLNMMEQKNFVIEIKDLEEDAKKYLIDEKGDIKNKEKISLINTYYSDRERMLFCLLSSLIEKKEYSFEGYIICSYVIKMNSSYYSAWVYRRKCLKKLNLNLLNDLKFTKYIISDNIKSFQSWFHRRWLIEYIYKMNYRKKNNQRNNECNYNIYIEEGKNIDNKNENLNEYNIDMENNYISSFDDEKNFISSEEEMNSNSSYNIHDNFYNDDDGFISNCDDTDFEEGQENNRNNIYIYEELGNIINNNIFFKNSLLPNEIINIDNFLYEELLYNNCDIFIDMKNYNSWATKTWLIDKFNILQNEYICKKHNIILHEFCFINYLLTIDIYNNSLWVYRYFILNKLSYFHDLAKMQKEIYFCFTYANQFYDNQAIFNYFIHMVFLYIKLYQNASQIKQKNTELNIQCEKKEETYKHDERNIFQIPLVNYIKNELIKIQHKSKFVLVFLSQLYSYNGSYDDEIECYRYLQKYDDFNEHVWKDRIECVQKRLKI
T1 sequence (Q8IHP6 1-923): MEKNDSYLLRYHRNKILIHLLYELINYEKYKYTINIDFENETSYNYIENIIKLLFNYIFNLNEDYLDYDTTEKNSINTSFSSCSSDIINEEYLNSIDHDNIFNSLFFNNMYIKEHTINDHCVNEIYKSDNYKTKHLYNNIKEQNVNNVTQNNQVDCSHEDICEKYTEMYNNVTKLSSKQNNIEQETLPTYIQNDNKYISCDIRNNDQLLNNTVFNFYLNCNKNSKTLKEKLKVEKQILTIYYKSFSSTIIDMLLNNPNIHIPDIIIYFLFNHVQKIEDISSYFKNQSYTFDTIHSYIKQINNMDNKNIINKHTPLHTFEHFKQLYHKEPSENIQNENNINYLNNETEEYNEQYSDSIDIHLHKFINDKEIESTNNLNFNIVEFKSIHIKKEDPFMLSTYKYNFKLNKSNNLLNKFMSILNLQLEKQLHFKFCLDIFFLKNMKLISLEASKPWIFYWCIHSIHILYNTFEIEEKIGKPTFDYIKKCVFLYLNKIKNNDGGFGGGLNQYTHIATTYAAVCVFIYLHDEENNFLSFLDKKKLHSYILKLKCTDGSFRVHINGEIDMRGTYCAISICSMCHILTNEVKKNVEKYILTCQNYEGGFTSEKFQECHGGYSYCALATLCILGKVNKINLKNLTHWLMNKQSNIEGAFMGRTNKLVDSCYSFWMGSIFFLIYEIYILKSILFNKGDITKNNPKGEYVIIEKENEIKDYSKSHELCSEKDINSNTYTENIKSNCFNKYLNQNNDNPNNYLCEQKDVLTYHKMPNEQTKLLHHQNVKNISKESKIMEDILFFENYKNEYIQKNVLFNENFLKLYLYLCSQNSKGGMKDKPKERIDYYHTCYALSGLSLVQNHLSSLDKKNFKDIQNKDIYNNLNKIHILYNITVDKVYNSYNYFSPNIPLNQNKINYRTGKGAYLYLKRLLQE

[2] = test system: P. falciparum 3D7; assay: P. falciparum ED50 determination, [3H]-hypoxanthine incorporation, strain 3D7; type: cell-based, Plasmodium falciparum; details: concentration decreasing hypoxanthine incorporation into parasites twofold, read-out: ED50 3D7
Excerpt: (§1) Plasmodium strains. The P. falciparum strains used in this study were 3D7 (Netherlands, sensitive) provided by Dr. Pradipsinh Rathod from the University of Washington and K1 (Thailand, ChQ-R, Pyr-R) obtained from the MR4Unit of the American Type Culture Collection (ATCC, Manassas, Va.).
(§2) P. falciparum culture. Strains of P. falciparum were sustained in vitro based on experimental techniques as described by Trager and Jensen.^26 Cultures were maintained in RPMI-1640 (Sigma, St. Louis, […].) with 2 mM L-glutamine, 25 mM HEPES, 33 mM NaHCO3, 20 μg/ml gentamicin sulfate and 20% (v/v) heat-inactivated human plasma type A+ (R^P-20P). Type A+ erythrocytes were obtained from lab donors, washed three times with RPMI, re-suspended in 50% RPMI, and stored at 4° C. Parasites were grown in 10 mL of a 2% hematocrit/RP-20P (v/v) in 50-mL flasks under a 5% CO2, 5% O2, and 90% N2 atmosphere.
(§3) P. falciparum ED50 determination. One […]L of PFTI dissolved in DMSO was added to each well of a 96-well plate followed by the addition of 200 μL of P. falciparum culture at parasitemia and hematocrit of 0.5%. Plates were flushed with 5% CO2, 5% O2, and 90% N2 then incubated at 37° C. for 48 hr. [8-^3H]-hypoxanthine (0.3 μCi, 20 Ci/mmol, American Radiolabeled Chemicals) in 30 μL RP-20P was added to cultures and incubated for an additional 24 hours. Cells were harvested onto filter mats by a Multiharvester (Skatron, Sunnyvale, Calif.) and the radioactivity incorporated into the parasites was counted on a β-scintillation counter. The background level detected with uninfected erythrocytes was subtracted from the data. The ^3H-incorporation into infected RBCs with 1 μL DMSO vehicle alone represents 100% malaria growth. ED50 values were determined by linear regression analysis of the plots of ^3H-hypoxanthine incorporation versus concentration of compound.

[3] = test system: P. falciparum K1; assay: P. falciparum ED50 determination, [3H]-hypoxanthine incorporation, strain K1; type: cell-based, Plasmodium falciparum; details: concentration decreasing hypoxanthine incorporation into parasites twofold, read-out: ED50 K1
Excerpt: as §1, §2, §3

[4] = Plasmodium falciparum, 3D7, strain 3D7
[5] = Plasmodium falciparum, K1, strain K1

Row | Compound | IC50 [1] | inhibition at 0.005 µM [1] | inhibition at 0.05 µM [1] | EC50 [2, 4] | EC50 [3, 5] | % Inhibition of PfPFT at 5 nM ([1]; inhibitor at 5 nM) | % Inhibition of PfPFT at 50 nM ([1]; inhibitor at 50 nM) | EC50 ([2]; strain 3D7) | EC50 ([3]; strain K1) | activity in words ([1]; SAR discussion of Table 4)
1 | Cn1cnc(S(=O)(=O)N(CCN(Cc2cncn2C)c2ccc(C#N)cc2)CC2CCN(c3ncccn3)CC2)c1 [Compound 8w, 1-Methyl-1H-imidazole-4-sulfonic acid {2-[(4-cyano-phenyl)-(3-methyl-3H-imidazol-4-ylmethyl)-amino]-ethyl}-(1-pyrimidin-2-yl-piperidin-4-ylmethyl)-amide] | 0.0015 µM | 74% | 96% | 0.13 µM | 0.085 µM |  |  |  |  | 
2 | Cn1cnc(S(=O)(=O)N(CCN(Cc2cncn2C)c2ccc(C#N)cc2)Cc2cccnc2)c1 [Compound 8ab, 1-Methyl-1H-imidazole-4-sulfonic acid {2-[(4-cyano-phenyl)-(3-methyl-3H-imidazol-4-ylmethyl)-amino]-ethyl}-pyridin-3-ylmethyl-amide] |  | 18% | 74% | 2.8 µM | 4.25 µM |  |  |  |  | 
3 | Cc1cccc(CN(CCN(Cc2cncn2C)c2ccc(C#N)cc2)S(=O)(=O)c2cn(C)cn2)c1 [Compound 8y, 1-Methyl-1H-imidazole-4-sulfonic acid {2-[(4-cyano-phenyl)-(3-methyl-3H-imidazol-4-ylmethyl)-amino]-ethyl}-(3-methyl-benzyl)-amidem-toluene] |  |  |  |  |  | 61% | 94% | 0.3 µM | 1 µM | 
4 | Cn1cnc(S(=O)(=O)N(CCN(Cc2cncn2C)c2ccc(C#N)cc2)CC2CCNCC2)c1 [Compound 8s, 1-Methyl-1H-imidazole-4-sulfonic acid {2-[(4-cyano-phenyl)-(3-methyl-3H-imidazol-4-ylmethyl)-amino]-ethyl}-piperidin-4-ylmethyl-amide] |  | 5% | 5% | > 5 µM | > 5 µM |  |  |  |  | inactive
5 | C=CCN(CCN(Cc1cncn1C)c1ccc(C#N)cc1)S(=O)(=O)c1cn(C)cn1 [Compound 8l, 1-Methyl-1H-imidazole-4-sulfonic acid allyl-{2-[(4-cyano-phenyl)-(3-methyl-3H-imidazol-4-ylmethyl)-amino]-ethyl}-amide] |  | 1% | 42% | > 5 µM | > 5 µM |  |  |  |  | 
6 | CC(C)C(=O)N(CCN(Cc1cncn1C)c1ccc(C#N)cc1)Cc1ccccc1 [Compound 8k, N-Benzyl-N-{2-[(4-cyano-phenyl)-(3-methyl-3H-imidazol-4-ylmethyl)-amino]-ethyl}-isobutyramide] |  | 0% | 61% | 2 µM | > 5 µM |  |  |  |  | 
7 | Cn1cnc(S(=O)(=O)N(CCN(Cc2cncn2C)c2ccc(C#N)cc2)Cc2ccc(-n3cccc3)cc2)c1 [Compound 8ai, 1-Methyl-1H-imidazole-4-sulfonic acid {2-[(4-cyano-phenyl)-(3-methyl-3H-imidazol-4-ylmethyl)-amino]-ethyl}-(4-pyrrol-1-yl-benzyl)-amide] | 0.011 µM | 39% | 85% | 0.257 µM | 0.41 µM |  |  |  |  | 
8 | Cn1cnc(S(=O)(=O)N(CCN(Cc2cncn2C)c2ccc(C#N)cc2)CCn2cccc2)c1 [Compound 8p, 1-Methyl-1H-imidazole-4-sulfonic acid {2-[(4-cyano-phenyl)-(3-methyl-3H-imidazol-4-ylmethyl)-amino]-ethyl}-(2-pyrrol-1-yl-ethyl)-amide] |  | 11% | 56% | > 5 µM | > 5 µM |  |  |  |  | 
9 | Cn1cncc1CN(CCN(Cc1ccccc1)S(=O)(=O)c1cccs1)c1ccc(C#N)cc1 [Compound 8f, Thiophene-2-sulfonic acid benzyl-{2-[(4-cyano-phenyl)-(3-methyl-3H-imidazol-4-ylmethyl)-amino]-ethyl}-amide] |  | 17% | 74% | 0.55 µM | 1.12 µM |  |  |  |  | 
